These results are taken from publication PMC8847575, “HSL1 and BAM1/2 impact epidermal cell development by sensing distinct signaling peptides” (Nature Communications, 2022).

Usually Kd stands for the equilibrium constant for the complex coming apart. Higher therefore signals a looser complex.

Square brackets hold non-standard residues; d marks the D form. Peptide text beside a SMILES is read from it. Hyp = O=C(O)[C@@H]1C[C@@H](O)CN1

The target in assay [1] is T1, HSL1 ectodomain (Arabidopsis thaliana, UniProt Q9SGP2).
T1 construct: HSL1 (residues 17-618, AT1G28440); azurocidin or Drosophila BIP signal peptide (secretion signal) (N); made in house; host or cells: Trichoplusia ni Tnao38 insect cells (baculovirus)
T1 sequence (Q9SGP2 17-618): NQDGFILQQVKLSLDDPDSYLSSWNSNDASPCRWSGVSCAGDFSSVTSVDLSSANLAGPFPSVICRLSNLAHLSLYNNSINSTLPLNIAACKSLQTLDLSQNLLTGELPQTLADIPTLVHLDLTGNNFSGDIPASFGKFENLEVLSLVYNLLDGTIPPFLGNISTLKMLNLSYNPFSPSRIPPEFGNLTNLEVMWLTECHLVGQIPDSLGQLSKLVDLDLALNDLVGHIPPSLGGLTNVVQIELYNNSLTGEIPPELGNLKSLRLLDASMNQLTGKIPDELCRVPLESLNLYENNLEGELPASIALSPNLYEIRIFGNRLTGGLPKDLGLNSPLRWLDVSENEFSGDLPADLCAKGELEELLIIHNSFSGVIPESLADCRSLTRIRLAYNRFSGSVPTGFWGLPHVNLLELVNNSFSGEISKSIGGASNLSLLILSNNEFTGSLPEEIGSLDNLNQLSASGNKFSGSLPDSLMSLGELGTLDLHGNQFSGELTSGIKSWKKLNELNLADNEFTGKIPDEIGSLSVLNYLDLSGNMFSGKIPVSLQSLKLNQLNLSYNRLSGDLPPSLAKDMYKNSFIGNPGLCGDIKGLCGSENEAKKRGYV
In words: ITC, peptide titrated into isolated HSL1 ectodomain. As to conditions: peptide (syringe) into HSL1 ectodomain (cell), 25 °C, 20 mM sodium citrate pH 5.0, 150 mM NaCl, N fitted to 1, mean ± SD of at least two independent experiments, n.d = no binding detected. An excerpt: All genes used for protein expression in Trichoplusia ni Tnao38 cells[46] were codon optimized and cloned into a modified pFastBac vector (Geneva Biotech) providing an azurocidin[47] or Drosophila BIP signal peptide, a TEV (tobacco etch virus protease) cleavage site and a Strep-9xHis tandem affinity tag at their carboxy terminus. The genes used are coding for the Arabidopsis ectodomains of HSL1 (residues 17-618, AT1G28440), HAE (residues 20-620, AT4G28490) SERK1 (residues 24–213, AT1G71830), and BAM1 (residues 20–637, AT5G65700). To perform Grating-coupled interferometry (GCI) experiments, HSL1 was fused to a non-cleavable Avi-tag[49],[50]. […] After every expression round, secretion of our proteins was detected using an anti-His-HRP conjugated antibody from Roche (Ref:11965085001) in a 1:2000 dilution. […] Proteins were analyzed for purity and structural integrity by SDS-PAGE.
Experiments were performed at 25 °C using a MicroCal PEAQ-ITC (Malvern Instruments) with a 200 µL standard cell and a 40 μL titration syringe. […] Molar protein concentrations for HSL1, BAM1, and SERK1 were calculated using their molar extinction coefficient and a molecular weight of 74,896 and 27,551 Da, respectively as previously determined. […] Experiments were done in duplicates or triplicates, otherwise specified, and data were analyzed using the MicroCal PEAQ-ITC Analysis Software provided by the manufacturer. […]
For orientation: In ITC the heat of successive injections is recorded.

The target of another assay is T2, BAM1 LRR ectodomain (Arabidopsis thaliana, UniProt O49545).
T2 construct: BAM1 (residues 20–637, AT5G65700); azurocidin or Drosophila BIP signal peptide (secretion signal) (N); made in house; host or cells: Trichoplusia ni Tnao38 insect cells (baculovirus)
T2 sequence (O49545 20-637): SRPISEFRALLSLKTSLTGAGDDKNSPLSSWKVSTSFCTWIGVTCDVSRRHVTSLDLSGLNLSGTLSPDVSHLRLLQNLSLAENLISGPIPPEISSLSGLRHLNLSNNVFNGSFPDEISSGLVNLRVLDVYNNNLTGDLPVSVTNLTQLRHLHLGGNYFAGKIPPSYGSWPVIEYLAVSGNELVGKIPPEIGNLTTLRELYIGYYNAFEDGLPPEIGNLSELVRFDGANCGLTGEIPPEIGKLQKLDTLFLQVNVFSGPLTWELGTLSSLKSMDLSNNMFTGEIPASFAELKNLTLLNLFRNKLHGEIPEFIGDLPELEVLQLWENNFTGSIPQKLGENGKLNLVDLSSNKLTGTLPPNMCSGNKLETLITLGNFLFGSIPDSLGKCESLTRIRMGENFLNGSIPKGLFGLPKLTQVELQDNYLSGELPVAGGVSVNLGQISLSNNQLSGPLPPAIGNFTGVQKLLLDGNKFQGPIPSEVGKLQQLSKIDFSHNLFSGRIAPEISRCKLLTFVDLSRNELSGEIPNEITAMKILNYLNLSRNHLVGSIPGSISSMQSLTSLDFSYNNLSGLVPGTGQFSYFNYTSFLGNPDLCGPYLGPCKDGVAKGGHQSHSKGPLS
In words: ITC, peptide titrated into BAM1 ectodomain. It counts as binding. The source says:
All genes used for protein expression in Trichoplusia ni Tnao38 cells[46] were codon optimized and cloned into a modified pFastBac vector (Geneva Biotech) providing an azurocidin[47] or Drosophila BIP signal peptide, a TEV (tobacco etch virus protease) cleavage site and a Strep-9xHis tandem affinity tag at their carboxy terminus. The genes used are coding for the Arabidopsis ectodomains of HSL1 (residues 17-618, AT1G28440), HAE (residues 20-620, AT4G28490) SERK1 (residues 24–213, AT1G71830), and BAM1 (residues 20–637, AT5G65700). To perform Grating-coupled interferometry (GCI) experiments, HSL1 was fused to a non-cleavable Avi-tag[49],[50]. Baculovirus generation was carried out in DH10 cells and virus amplification was done in Spodoptera frugiperda Sf9 cells. For protein expression, Trichoplusia ni Tnao38 cells were infected with HAE, HSL1, BAM1 and SERK1 virus with a multiplicity of infection (MOI) of 3. The cells were grown 1 day at 28 °C and two days at 22 °C at 110 rpm. After every expression round, secretion of our proteins was detected using an anti-His-HRP conjugated antibody from Roche (Ref:11965085001) in a 1:2000 dilution. […] Next, affinity tags were removed by incubating the purified proteins with recombinant His-tagged TEV protease, in a 1:50 ratio. The cleaved tag and the protease were separated from the ectodomains by a second Ni^2+ affinity step. Proteins were further purified by size-exclusion chromatography on a Superdex 200 Increase 10/300 GL column (GE Healthcare) equilibrated in 20 mM citric acid pH 5.0, 150 mM NaCl. Peak fractions containing the single proteins or complexes were concentrated using Amicon Ultra concentrators (Millipore, MWCO 10,000 for SERK1 and 30,000 for HAE, HSL1, and BAM1) and used for crystallization or biochemical experiments. Proteins were analyzed for purity and structural integrity by SDS-PAGE.
Experiments were performed at 25 °C using a MicroCal PEAQ-ITC (Malvern Instruments) with a 200 µL standard cell and a 40 μL titration syringe. HSL1, BAM1, and SERK1 proteins were gel-filtrated into the ITC buffer (20 mM sodium citrate pH 5.0, 150 mM NaCl). Molar protein concentrations for HSL1, BAM1, and SERK1 were calculated using their molar extinction coefficient and a molecular weight of 74,896 and 27,551 Da, respectively as previously determined. A typical experiment consisted of injecting 2 μL of a range between 75 and 600 μM solution of ligand into 10 to 30 μM HAE, HSL1, or BAM1 solution in the cell at 150 s intervals and 500 rpm stirring speed. The SERK1 vs HAE/HSL1-peptide experiments were performed by titrating 100 µM SERK1 in the cell, using the same injection pattern. ITC data were corrected for the heat of dilution by subtracting the mixing enthalpies for titrant solution injections into protein-free ITC buffer. Experiments were done in duplicates or triplicates, otherwise specified, and data were analyzed using the MicroCal PEAQ-ITC Analysis Software provided by the manufacturer. […] The N values were fitted to 1 in the analysis.

In assay [2] the target is HSL1 (HAESA-LIKE 1) ectodomain (Arabidopsis) (UniProt Q9SGP2). In words: ITC; peptide (75 to 600 µM) injected into 10 to 30 µM HSL1 or BAM1 ectodomain in the cell; 25 °C; 20 mM sodium citrate pH 5.0, 150 mM NaCl; N fitted to 1.
Assay [3] deals with T1, HSL1 ectodomain. Put plainly: GCI binding kinetics, peptide vs immobilised HSL1. As to conditions: HSL1 on surface, peptide as analyte, 25 °C, pH 5, one-to-one binding model, read-out: ka association rate constant, peptide vs HSL1 (GCI). The protocol: 25 μM of HSL1 were biotinylated with the biotin ligase BirA[60] (2 μM) for 1 h at 30 °C, in a volume of 200 μl. The buffer used in the reaction was: 25 mM Tris pH 8, 150 mM NaCl, 5 mM MgCl2, 2 mM 2-Mercaptoethanol, 0.15 mM Biotin, 2 mM ATP. Biotinylated proteins were purified by size-exclusion chromatography in 20 mM citric acid pH5, 150 mM NaCl and subsequently used in GCI experiments.
GCI experiments were performed with the Creoptix WAVE system (Creoptix AG, Switzerland) using 4PCP WAVE chips (thin quasiplanar polycarboxylate surface; Creoptix, Switzerland). Chips were first conditioned with borate buffer (100 mM sodium borate pH 9.0, 1 M NaCl; Xantec, Germany). Chips were activated with 1:1 mix of 400 mM N-(3-dimethylaminopropyl)-N′-ethylcarbodiimide hydrochloride and 100 mM N-hydroxysuccinimide (Xantec, Germany). Streptavidin (50 µg/ml; Sigma, Germany) in 10 mM sodium acetate pH 5.0 (Sigma, Germany) was immobilized on the chip surface until saturation was reached, followed by passivation of the surface with BSA (50 µg/ml; Sigma, Germany) in 10 mM sodium acetate pH5.0, and a final quenching step with 1 M ethanolamine pH 8.0 (Xantec, Germany). Then, biotinylated HSL1 (ligand) (80–100 μg/ml) was captured on the streptavidin surface until the desired density was reached. Normal kinetic analysis were performed to measure the binding of IDL peptides (analyte) to HSL1. Experiments were performed at 25 °C with a 1:2 dilution series from a maximum concentration of 5–50 μM peptide, in 20 mM citrate pH 5, 250 mM NaCl, 0.005% Tween-20 v/v. To analyze the interaction kinetics of the co-receptor SERK1, 2 µM of the protein was used as a higher dilution with running buffer containing 5 µM of the IDL peptides being tested. Blank injections were used for double referencing and a dimethylsulfoxide (DMSO) calibration curve for bulk correction. Analysis and correction of the obtained data were performed using the Creoptix WAVE control software (correction applied: X and Y offset; DMSO calibration; double referencing). One-to-one binding model was used for both experiments.

For the compound `CC(C)C[C@H](NC(=O)[C@@H](N)CCCNC(=N)N)C(=O)N[C@H](C(=O)N1C[C@H](O)C[C@H]1C(=O)N[C@@H](CO)C(=O)NCC(=O)N1C[C@H](O)C[C@H]1C(=O)N[C@@H](CC(N)=O)C(=O)N1CCC[C@H]1C(=O)N[C@@H](CC(C)C)C(=O)N[C@@H](Cc1c[nH]cn1)C(=O)N[C@@H](CC(N)=O)C(=O)O)C(C)C` [CLE9] (H-RLV[Hyp]SG[Hyp]NPLHN-OH), the “Kd (dissociation constant), peptide vs HSL1” value on HSL1 ectodomain [1] is recorded as “did not detect binding”. Also, at BAM1 LRR ectodomain, binding was characterised by a dissociation constant (Kd) of 0.094 ± 0.056 µM.

For the compound “IDA^K66AR67AH68A peptide (from UniProt Q8LAD7 58-69)”, in assay [2], the fold reduction of binding affinity against wild-type IDA came to 15 fold. For `CC(C)[C@H](NC(=O)[C@@H]1CCCN1)C(=O)N1CCC[C@H]1C(=O)N[C@H](C(=O)N[C@@H](CO)C(=O)NCC(=O)N1C[C@H](O)C[C@H]1C(=O)N[C@@H](CO)C(=O)N[C@@H](CCCNC(=N)N)C(=O)N[C@@H](CCCCN)C(=O)N[C@@H](Cc1c[nH]cn1)C(=O)N[C@@H](CC(N)=O)C(=O)O)[C@@H](C)O` [IDL3, IDA-LIKE] (H-PVPTSG[Hyp]SRKHN-OH), the kon at HSL1 ectodomain [3] was 700000 M⁻¹ s⁻¹.

Consider `CC[C@H](C)[C@H](NC(=O)[C@@H]1CCCN1)C(=O)N1CCC[C@H]1C(=O)N1CCC[C@H]1C(=O)N[C@@H](CO)C(=O)N[C@@H](C)C(=O)N1C[C@H](O)C[C@H]1C(=O)N[C@@H](CO)C(=O)N[C@@H](CCCCN)C(=O)N[C@@H](CCCNC(=N)N)C(=O)N[C@@H](Cc1c[nH]cn1)C(=O)N[C@@H](CC(N)=O)C(=O)O` [IDA, INFLORESCENCE DEFICIENT IN ABSCISSION] (H-PIPPSA[Hyp]SKRHN-OH), for which the kon at HSL1 ectodomain [3] worked out at 225000 M⁻¹ s⁻¹. On BAM1 LRR ectodomain (ITC, peptide into BAM1 ectodomain (cell), 25 °C, 20 mM sodium citrate pH 5.0, 150 mM NaCl, N fitted to 1, mean ± SD of at least two independent experiments, n.d = no binding detected), the “Kd (dissociation constant), peptide vs BAM1” value is on record as “did not detect interaction”.
